Experimental data: the supplement of paper PMC6723410

Assays:
GUMC-403 [1] = test: AC50 for reduction of cell viability; higher = less potent; conditions: library / dose series: MIPE library, 11-point 1:3 dilution; 48 h
GUMC-403 [2] = test: viability at highest tested concentration (max response) relative to DMSO (% of DMSO control); higher = less cytotoxic; conditions: library / dose series: MIPE library, 11-point 1:3 dilution, 48 h
Procedure, shortened: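 In 1536-well plates, 700 GUMC-403 papilloma cells per well, taken from a patient and grown by conditional reprogramming, were seeded in 5 μL F + Y medium and incubated overnight at 37 °C. Compounds were pinned in at 23 nL in an 11-point 1:3 series, and left for 48 h before CellTiter-Glo luminescence was read on a ViewLux against vehicle (100%) and empty (0%) wells. Reported values are viability at the highest tested concentration relative to vehicle control.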

## CC(=O)SCC(Cc1ccccc1)C(=O)NCC(=O)OCc1ccccc1 (centres undefined)
GUMC-403 [1]
  AC50 for reduction of cell viability: 1.18 µM
GUMC-403 [2]; top concentration 46.1 µM
  viability: 42.8

## COC(=O)Nc1ccc(-c2nc(N3CCOCC3)c3cnn(C4CCN(Cc5cccnc5)CC4)c3n2)cc1
GUMC-403 [1]
  AC50 for reduction of cell viability: 1.05 µM
GUMC-403 [2]; top concentration 46.1 µM
  viability: 23.5

## COc1ccc(-c2ccc3c(N4CCOCC4)nc(N4C[C@@H](C)O[C@@H](C)C4)nc3n2)cc1CO
GUMC-403 [1]
  AC50 for reduction of cell viability: 1.87 µM
GUMC-403 [2]; top concentration 46.1 µM
  viability: 62.3

## CC(C)c1cnn2c(NCc3ccccc3)cc(N[C@@H](CO)[C@H](O)CO)nc12
GUMC-403 [1]
  AC50 for reduction of cell viability: 0.372 µM
GUMC-403 [2]; top concentration 46.1 µM
  viability: 19.1

## CCNC(=O)c1noc(-c2cc(C(C)C)c(O)cc2O)c1-c1ccc(CN2CCOCC2)cc1
GUMC-403 [1]
  AC50 for reduction of cell viability: 0.296 µM
GUMC-403 [2]; top concentration 46.1 µM
  viability: 74.5

## CC1(C)Cc2c(sc(NC(=S)NC(=O)c3ccccc3)c2C(=O)O)CO1
GUMC-403 [1]
  AC50 for reduction of cell viability: 26.4 µM
GUMC-403 [2]; top concentration 46.1 µM
  viability: 25.5

## Oc1cccc(-c2nc(N3CCOCC3)c3oc4ncccc4c3n2)c1
GUMC-403 [1]
  AC50 for reduction of cell viability: 0.762 µM
GUMC-403 [2]; top concentration 92.2 µM
  viability: 28.3

## CCN(CC)CCNC(=O)c1c(C)[nH]c(/C=C2\C(=O)Nc3ccc(F)cc32)c1C
GUMC-403 [1]
  AC50 for reduction of cell viability: 42.9 µM
GUMC-403 [2]; top concentration 92.2 µM
  viability: 5.58

## COC1=CC=C(C=N1)C/2=C/C3=C(C)N=C(N)N=C3N(C4CCC(CC4)OCCO)C2=O (centres undefined)
GUMC-403 [1]
  AC50 for reduction of cell viability: 0.264 µM
GUMC-403 [2]; top concentration 46.1 µM
  viability: 4.47

## COc1ccc(-c2nc(N3CCOCC3)c3sc(CN(C)c4ncc(C(=O)NO)cn4)cc3n2)cn1
GUMC-403 [1]
  AC50 for reduction of cell viability: 1.05 µM
GUMC-403 [2]; top concentration 46.1 µM
  viability: 44.7

## ClC1=CC\2=C(NC(=O)\C(=C2N[C@@H]3CN4CCC3CC4)C5=NC6=C([NH]5)C=CC=C6)C=C1
GUMC-403 [1]
  AC50 for reduction of cell viability: 3.32 µM
GUMC-403 [2]; top concentration 46.1 µM
  viability: 16.4

## CC(C)(O)c1cc2nc(-c3cnc(N)nc3)nc(N3CCOCC3)c2s1
GUMC-403 [1]
  AC50 for reduction of cell viability: 0.148 µM
GUMC-403 [2]; top concentration 46.1 µM
  viability: 33.5

## CN(C)C1=CC=C(C=C1)C(C2=CC=C(C=C2)N(C)C)=C/3\C=C/C(/C=C3)=[N+](C)C
GUMC-403 [1]
  AC50 for reduction of cell viability: 14.8 µM
GUMC-403 [2]; top concentration 46.1 µM
  viability: 4.73

## COCCn1c2c([n+](Cc3cnccn3)c1C)C(=O)c1ccccc1C2=O
GUMC-403 [1]
  AC50 for reduction of cell viability: 0.187 µM
GUMC-403 [2]; top concentration 46.1 µM
  viability: 5.13

## CC(C)(O)Cn1c(NC(=O)c2ccc(-c3cn[nH]c3)s2)nc2cc(CN3CCOCC3)ccc21
GUMC-403 [1]
  AC50 for reduction of cell viability: 2.35 µM
GUMC-403 [2]; top concentration 46.1 µM
  viability: 5.55

## Cc1ccc(NC(=O)C2(c3ccc4c(c3)OC(F)(F)O4)CC2)nc1-c1cccc(C(=O)O)c1
GUMC-403 [1]
  AC50 for reduction of cell viability: 1.66 µM
GUMC-403 [2]; top concentration 46.1 µM
  viability: 6.42

## O=C1NC(=O)/C(=C/c2ccc3nccc(-c4ccncc4)c3c2)S1
GUMC-403 [1]
  AC50 for reduction of cell viability: 0.235 µM
GUMC-403 [2]; top concentration 46.1 µM
  viability: 18.7

## CCOc1cc2ncc(C#N)c(Nc3ccc(F)c(Cl)c3)c2cc1NC(=O)/C=C/CN(C)C
GUMC-403 [1]
  AC50 for reduction of cell viability: 0.0296 µM
GUMC-403 [2]; top concentration 46.1 µM
  viability: 76.1

## C/C=C1\NC(=O)[C@H]2CSSCC/C=C\[C@H](CC(=O)N[C@H](C(C)C)C(=O)N2)OC(=O)[C@H](C(C)C)NC1=O
GUMC-403 [1]
  AC50 for reduction of cell viability: 0.105 µM
GUMC-403 [2]; top concentration 46.1 µM
  viability: 6.97

## COc1cc2ncnc(Nc3cc(Br)c(O)c(Br)c3)c2cc1OC
GUMC-403 [1]
  AC50 for reduction of cell viability: 1.48 µM
GUMC-403 [2]; top concentration 46.1 µM
  viability: 73.9

## COc1ncc(-c2ccc3nccc(-c4ccnnc4)c3c2)cc1N[S+](=O)([O-])c1ccc(F)cc1F
GUMC-403 [1]
  AC50 for reduction of cell viability: 0.59 µM
GUMC-403 [2]; top concentration 46.1 µM
  viability: 9.41

## COc1cc(N2CCC(C(N)=O)CC2)ccc1Nc1nc(N)c(Cl)c(Nc2ccccc2[S+](=O)([O-])C(C)C)n1
GUMC-403 [1]
  AC50 for reduction of cell viability: 8.33 µM
GUMC-403 [2]; top concentration 46.1 µM
  viability: 68.2

## COC[C@H](NC(=O)c1cnc(C)s1)C(=O)N[C@@H](COC)C(=O)N[C@@H](Cc1ccccc1)C(=O)[C@@]1(C)CO1
GUMC-403 [1]
  AC50 for reduction of cell viability: 6.62 µM
GUMC-403 [2]; top concentration 46.1 µM
  viability: 8.89

## C=CCNc1c(O)cc2c(O)c1C[C@@H](C)C[C@H](OC)[C@H](O)[C@@H](C)/C=C(/C)[C@H](OC(N)=O)[C@@H](OC)/C=C\C=C(\C)C(=O)N2
GUMC-403 [1]
  AC50 for reduction of cell viability: 4.69 µM
GUMC-403 [2]; top concentration 46.1 µM
  viability: 68.9

## Oc1ccc(-c2ccc(-c3cc(Nc4cccc(CNC5CC5)c4)[nH]n3)cc2)c(O)c1
GUMC-403 [1]
  AC50 for reduction of cell viability: 13.2 µM
GUMC-403 [2]; top concentration 46.1 µM
  viability: 13.7

## NCC(=O)Nc1ccc(-n2nc(C(F)(F)F)cc2-c2ccc3c(ccc4ccccc43)c2)cc1
GUMC-403 [1]
  AC50 for reduction of cell viability: 26.4 µM
GUMC-403 [2]; top concentration 46.1 µM
  viability: 1.75

## Nc1ncnc2c1c(-c1cnc3[nH]ccc3c1)nn2C1CCCC1
GUMC-403 [1]
  AC50 for reduction of cell viability: 8.33 µM
GUMC-403 [2]; top concentration 46.1 µM
  viability: 7.41
